{"source": "patent US8609870B2", "about": "“Treating various disorders using TrkB agonists” (Emory University, priority 2008, dated 2013)", "key": {"Erk1/2 and Akt": {"test_system": "Erk1/2 and Akt", "experiment": "Erk1/2 and Akt activation in hippocampal neurons (Western blot)", "type": "cell-based", "conditions": "hippocampal neurons", "method": "BDNF binding to TrkB induces its autophosphorylation and, subsequently, activation of downstream kinase pathways including MAPK and PI3/Akt. To explore whether an identified active compound triggers TrkB activation, immunofluorescent staining on hippocampal neurons with anti-phospho TrkB antibody is conducted. To examine whether an identified active compound stimulates TrkB-mediated downstream signaling cascades, Western analysis is performed and the activation of Akt and Erk also is monitored. To test whether the stimulatory effect of an identified active compound is mediated through TrkB, cells are either untreated or treated with K252a, a selective inhibitor of the tyrosine kinase activity of the Trk family of neutrophin receptors. Cells treated with K252a block TrkB tyrosine phosphorylation in cells exposed to an identified active compound. To probe the time course of TrkB activation triggered by an identified active compound, hippocampal neurons are treated with an identified active compound at 500 nM and phosphorylation of Erk and Akt is determined over time by Western analysis. Whether stimulation of Erk and Akt by an identified active compound occurs in a dose dependent manner also is determined.\nBoth Akt and Erk1/2 were robustly activated by these molecules as well). […] The minimal required drug concentration was about 100-250 nM (see FIG. 7, right panels). […] To assess whether deoxygedunin provokes TrkB activation in the brain, mice (i.p.) were injected with a dose of 5 mg/kg for various time points. […] To establish that deoxygedunin is orally bioactive in provoking TrkB activation, two to three month old C57BL/6J mice were orally injected with various doses of 7,8-dihydroxyflavone or deoxygedunin then sacrificed 2 to 4 hours after administration. Brain lysates were prepared and analyzed by immunoblotting (see FIG. 10)."}, "TrkB": {"test_system": "TrkB", "experiment": "TrkB phosphorylation in hippocampal neurons (immunofluorescent staining, immunoblotting)", "type": "cell-based", "conditions": "hippocampal neurons", "method": "Unless specifically described, primary hippocampal neurons are seeded on poly-L lysine coated coverslips in a 12-well plate. After 7 days in vitro, the neurons are treated with 100 ng/ml BDNF or variety of flavone compounds (1 μM) for 30 minutes, and then are washed with PBS. Cells are fixed with 3% formaldehyde in PBS at room temperature for 10 minutes. The cells then are permeabilized and blocked by 0.4% Triton X-100 and 2% FBS in PBS at room temperature for 15 minutes, are washed with PBS three times, and are treated with anti-MAP2 (1:200) and anti-phospho-TrkB antibodies (1:500). After staining with FITC- or Rhodamine-conjugated secondary antibody, the coverslips are mounted on slides. Fluorescent images are taken by a fluorescence microscope.\nBDNF binding to TrkB induces its autophosphorylation and, subsequently, activation of downstream kinase pathways including MAPK and PI3/Akt. […] To examine whether an identified active compound stimulates TrkB-mediated downstream signaling cascades, Western analysis is performed and the activation of Akt and Erk also is monitored. […] To probe the time course of TrkB activation triggered by an identified active compound, hippocampal neurons are treated with an identified active compound at 500 nM and phosphorylation of Erk and Akt is determined over time by Western analysis. […]"}, "C57BL/6 mice": {"test_system": "C57BL/6 mice", "experiment": "KA-induced apoptosis in hippocampus (TUNEL staining)", "type": "in vivo, mouse", "conditions": "5 mg/kg i.p. followed by 20 mg/kg KA, 5 days"}, "caspase-3": {"test_system": "caspase-3", "experiment": "Caspase-3 activation in cortical neurons from knockout mouse pups", "type": "cell-based", "method": "To determine whether an identified active compound selectively activates TrkB receptor and prevents neuronal cell death, cortical neurons are prepared from homozygous pups of TrkB +/− mice, which are mated to the same genotype. The activation of TrkB and down stream indicators of TrkB activation, such as Capase-3, are monitored. To further assess whether an identified active compound blocks neuronal apoptosis in a TrkB dependent manner, cortical neurons are prepared from homozygous pups of […], which are mated to the same genotype. Again, the activation of TrkB and down stream indicators of TrkB activation, such as Capase-3, are monitored.\nAdditionally, the spontaneous caspase-3 activation in […] was suppressed by deoxygedunin."}, "C57BL/6J mice": {"test_system": "C57BL/6J mice", "experiment": "Tone-shock fear conditioning model", "type": "in vivo, mouse", "method": "Following a two-day habituation to testing context, wild-type C57Bl/6J mice (N=28, male, 8-10 weeks old) were fear conditioned in eight identical startle response systems (SR-LAB, SDI) consisting of a nonrestrictive Plexiglas cylinder, 5.5 cm in diameter and 13 cm long, mounted on a Plexiglas platform which was located in a ventilated, sound-attenuated chamber. One hour prior to fear conditioning, mice received […] (N=14, 5 mg/kg, i.p.) or vehicle (N=14, 17% DMSO in PBS). Mice then received 5 tone—footshock pairings, with 30 second 12 kHz, 85 dB tones which co-terminated with the footshocks (intensity of 0.5 mA, 0.5 second) with a 5 minute intertrial interval (ITI), after which they were returned to their homecage. 24 and 48 hrs after training, the mice were tested for freezing in rodent modular test chambers with an inside area of 30.5 cm×24.1 cm×21.0 cm. Three minutes after placing the mouse in the test chamber, fifteen 30 second conditioned stimulus (CS) tones with an ITI of 1.5 min were delivered through a high-frequency speaker attached to the side of each chamber. Percentage time spent freezing during the CS presentations was calculated for each mouse using FreezeFrame (Product Number: ACT-100) (Coulbourn Instruments, Whitehall, Pa.).\nTo determine whether deoxygeduning would enhance learning in a whole animal model of learning and memory, in which BDNF-dependent TrkB activation was required, a tone-shock fear conditioning model was developed (see FIG. 26). Following habituation to the testing context, 28 adult wild-type, C57BL/6J mice were given systemic injections of deoxygedunin (N=14, 5 mg/kg, i.p.) or vehicle (N=14) 1 hour prior to being subjected to the tone-shock fear conditioning model. […] Mice were then tested, with no additional drug treatment, for cue-conditioned fear in the previously habituated context on the two days following fear acquisition. […] To further explore these effects, individual animals' freezing levels throughout the tone-fear testing sessions were examined. […]"}}}
{"smiles": "CC(=O)O[C@@H]1C[C@H]2C(C)(C)C(=O)C=C[C@]2(C)[C@H]2CC[C@]3(C)C(=CC(=O)O[C@H]3c3ccoc3)[C@@]21C", "note": "[deoxygedunin]", "values": [{"measurement": "minimal required drug concentration for Erk1/2 and Akt activation", "setting": "Erk1/2 and Akt", "value": "100 to 250", "unit": "nM"}, {"measurement": "Erk1/2 and Akt activation", "setting": "Erk1/2 and Akt; time course and dose dependency", "value": "prominently provoked both Erk1/2 and Akt activation"}, {"measurement": "TrkB phosphorylation", "setting": "TrkB", "value": "strong TrkB phosphorylation"}, {"measurement": "KA provoked apoptosis in the hippocampus (TUNEL staining)", "setting": "C57BL/6 mice", "value": "diminished"}, {"measurement": "decrease of KA induced apoptosis in hippocampus", "setting": "C57BL/6 mice", "value": 60, "unit": "%"}, {"measurement": "blockade of glutamate-provoked caspase-3 activation", "setting": "caspase-3; TrkB −/− cortical neurons", "value": "not TrkB −/− neurons"}, {"measurement": "spontaneous caspase-3 activation", "setting": "caspase-3; TrkC −/− neurons", "value": "suppressed"}, {"measurement": "glutamate triggered caspase-3 activation", "setting": "caspase-3; wild-type and TrkC knockout neuron experiment", "value": "diminished"}, {"measurement": "blockade of glutamate-provoked caspase-3 activation", "setting": "caspase-3; wild-type cortical neurons", "value": "substantially blocked"}, {"measurement": "shock reactivity during fear acquisition training", "setting": "C57BL/6J mice; 5 mg/kg i.p. 1 hour prior to conditioning, versus vehicle", "value": "no difference"}, {"measurement": "average level of tone-dependent conditioned freezing versus vehicle", "setting": "C57BL/6J mice; 5 mg/kg i.p. 1 hour prior to training, tested on the two following days", "value": "significantly different on both testing days"}, {"measurement": "increase in the level of freezing during the first set of CS trials", "setting": "C57BL/6J mice; 5 mg/kg i.p., each testing day, versus vehicle", "value": "2-3 fold"}]}
